Results as given in patent EP2246037A2, “Anti-aging and whitening properties of quercetin, 18a-glycyrrhetinic acid, hederagenin and its derivatives” (Korres S.A. Natural Products, priority 2009, dated 2010).

Tests used:
[1] = tested on: tyrosinase; experiment: Immunoblot of tyrosinase expression in melanocytes; format: cell-based, Mouse; details: 72 h
Experimental: The steps, methods and results that were obtained regarding the whitening properties of the examined substances are the following: • A) Cellular whitening of melanocytes. • A.1. Mouse melanocytes (B10F16 cell line) were used in in vitro conditions (growth at 37°C, 5% CO2 and 95% humidity). • A.2. The cells were maintained in Dulbecco's modified Eagle's medium (DMEM®; Invitrogen Life Technologies Inc.) supplemented with 10% (v/v) fetal calf serum, 100 Units/ml penicillin, 100 µg/ml strepromycin, 2 mM glutamine and 1% (v/v) non-essential amino acids (complete medium). • A.3. 10^5 cells were seeded in petri dishes and the following day they were fed with medium supplemented with the substances [final concentration for all substances: 5 µg/ml and 10 µg/ml]. Quercetin (QUER), 18α-glycyrrhetinic acid (18α GA) and hederagenin (HED) were diluted in DMSO whereas quercetin caprylate was diluted in caprilic/capric triglycerides (CAP). Therefore, the control cultures were incubated in medium supplemented with 0.1% DMSO or 0.1% CAP. The media were replenished every 24 h and the cells were kept under these conditions constantly for 72 h. Cells were then collected and pelleted and the cell pellet was photographed. • A.4. […] The result was positively correlated to the concentration of quercetin used. • B) Detection of tyrosinase expression. • B.1. Mouse melanocytes were cultured as described in A.1.-A.3. After 72 h of treatment, the cells were collected, lysed and proteins were extracted and subjected to SDS-PAGE followed by immunoblot analysis against tyrosinase. Protein concentrations were determined using the Bradford method with BSA as a standard. • B.2.
Immunoblot analysis of tyrosinase (70-80 kDa) in melanocytes treated with the substances or the relative diluents. Equal protein loading was verified by stripping the membrane and reprobing them with GAPDH (37 kDa) antibody (bottom panel).

[2] = tested on: middle aged and terminally senescent HFL-1 HDFs; experiment: Reversal of senescent phenotype: cell number, morphology and β-galactosidase staining after 1 week of treatment; format: cell-based, human; details: for proliferation (number of cells) / β-galactosidase activity staining: 1 week; for morphology and proliferation: summary of section 3, middle aged or terminally senescent cells
Experimental: The steps, methods and results that were obtained regarding the anti-aging properties of the examined substances are the following: • 1) Study of the lifespan of human diploid fibroblasts in vitro in the presence of the substances. • 1.1. HFL-1 human diploid fibroblasts (HDFs) were used in in vitro conditions (growth at 37°C, 5% CO2 and 95% humidity). • 1.2. The cells were maintained in Dulbecco's modified Eagle's medium (DMEM ®; Invitrogen Life Technologies Inc.) supplemented with 10% (v/v) fetal calf serum, 100 Units/ml penicillin, 100 µg/ml strepromycin, 2 mM glutamine and 1% (v/v) non-essential amino acids (complete medium). • 1.3. The cells were constantly cultured in culture medium supplemented with the substances [final concentration for quercetin (QUER), 18α-glycyrrhetinic acid (18α GA), and hederagenin (HED): 2 µg/ml and for quercetin caprylate (QU-CAP) three concentrations were applied: 0.5, 2 and 5 µg/ml]. Quercetin, 18α-glycyrrhetinic acid and hederagenin were diluted in DMSO (dimethyl sulfoxide) whereas quercetin caprylate was diluted in caprilic/capric triglycerides (CAP). Therefore, the control cultures were incubated in medium supplemented with 0.1% DMSO or 0.1% CAP. • 1.4. The cells were replenished with fresh media supplemented with the substances or the diluents every 24 h and their numbers were examined using a Coulter Z2 ® counter (Coulter Corporation) until they reached senescence (approximately after 13 weeks). The cumulative population doublings performed by each culture were calculated using the following formula: CPD=Σ[PD] where PD=LOG[Nfinal/Ninitial]/LOG[2], where N final represents the number of cells that were measured when each culture reached confluence and N initial represents the number of cells that was initially seeded. • 1.5. Photographs of the cells maintained in cell culture and treated with the various substances for the same time period were taken. • 1.6. […] More specifically, cells that were incubated with quercetin caprylate gave up to 2.8% more population doublings as compared to the population doublings performed by the relative control cultures. Cells that were incubated with the other substances gave up to 2.9% more population doublings as compared to their relative control cultures. • 1.7. […] Cells that were treated with either of the tested substances maintained the young morphology for longer as compared to the control cultures (DMSO-treated and CAP-treated). […] HFL-1 HDFs were cultured as described in 1.1-1.4 for 10 consecutive weeks and were then subjected to β-galactosidase activity staining. • 1.2. Briefly, 10^5 cells from each culture were seeded in 6-well plates. After 24 h cells were washed with PBS (phosphate buffered saline), fixed in 0.2% glutaraldehyde and 2% formaldehyde for 5 min, washed again with PBS, and finally stained for 24 h at 37 °C in the absence of CO2, in staining solution (150 mM NaCl, 2 mM MgCl2, 5 mM K3Fe(CN)6, 40 mM citric acid, and 12 mM sodium phosphate, pH 6.0) containing 1 mg/ml 5-bromo-4-chloro-3-indolyl-β-D-galactoside. Photographs were then taken. • 1.3. […] HFL-1 HDFs that have senesced in vitro were used (growth at 37°C, 5% CO2 and 95% humidity). More specifically, middle aged HFL-1 HDFs (cpd 59) and terminally senescent HFL-1 HDFs (cpd 65) that had senesced in the absence of any substance were used. • 3.2. The cells were seeded and maintained in complete medium (see 1.2). Culture medium supplemented with the substances [final concentration for quercetin (QUER), 18α-glycyrrhetinic acid (18α GA), and hederagenin (HED): 2 µg/ml and for quercetin caprylate (QU-CAP) three concentrations were applied: 0.5, 2 and 5 µg/ml] or the diluents (0.1% DMSO or 0.1% CAP) were added 24 h later. The cells were replenished with fresh media supplemented with the substances or the diluents every 24 h for 1 week and their numbers were then examined using a Coulter Z2 ® counter (Coulter Corporation). • 3.3. […]

[3] = tested on: HFL-1 HDFs; experiment: Cell survival with or without oxidative stress; format: cell-based, human; details: for higher survival rate as compared to control cultures: 300 µM H2O2 for 2.5 h, then additional 24 h in culture; for survival to an oxidative stress challenge: summary, versus control cells
[4] = middle aged cells (cpd 59), 2 µg/ml, quercetin caprylate 0.5, 2 and 5 µg/ml
[5] = middle aged cells, 2 µg/ml, quercetin caprylate all three concentrations
[6] = terminally senescent cells (cpd 65), 2 µg/ml, quercetin caprylate 2 and 5 µg/ml
[7] = terminally senescent cells, quercetin 2 µg/ml, quercetin caprylate higher concentrations

Row | Compound | protein levels of tyrosinase ([1]; high concentration (10 µg/ml)) | proliferation (number of cells) [2, 4] | β-galactosidase activity staining [2, 5] | morphology and proliferation [2] | proliferation (number of cells) [2, 6] | β-galactosidase activity staining [2, 7] | higher survival rate as compared to control cultures [3] | survival to an oxidative stress challenge [3] | protein levels of tyrosinase ([1]; 5 µg/ml and 10 µg/ml) | higher survival rate as compared to diluent-treated cells ([3]; 24 h treatment, no oxidative stress)
1 | CC1(C)CC[C@]2(C(=O)O)CC[C@]3(C)C(=CC[C@@H]4[C@@]5(C)CC[C@H](O)[C@@](C)(CO)[C@@H]5CC[C@]43C)[C@@H]2C1 [Hederagenin] | reduced protein levels of tyrosinase | – | – | – | – | – | – | – | – | –
2 | quercetin caprylate | – | higher proliferation rates | less positive to β-galactosidase activity staining | regained a younger morphology and were induced to limited but significant proliferation | limited but sigmificant cell proliferation | many of those cells were negative for β-gatactosidase activity | ≤ 14.5% | survived better | reduced protein levels of tyrosinase | –
3 | CC1(C)[C@@H](O)CC[C@]2(C)[C@H]3C(=O)C=C4[C@H]5C[C@@](C)(C(=O)O)CC[C@]5(C)CC[C@@]4(C)[C@]3(C)CC[C@@H]12 [18α-glycyrrhetinic acid] | – | higher proliferation rates | less positive to β-galactosidase activity staining | regained a younger morphology and were induced to limited but significant proliferation | – | – | 2% | survived better | – | 3.5%
4 | O=c1c(O)c(-c2ccc(O)c(O)c2)oc2cc(O)cc(O)c12 [Quercetin] | – | higher proliferation rates | less positive to β-galactosidase activity staining | regained a younger morphology and were induced to limited but significant proliferation | limited but sigmificant cell proliferation | many of those cells were negative for β-gatactosidase activity | ≤ 14.5% | survived better | reduced protein levels of tyrosinase | –
